Data: PMC4854315, “Discovery of a novel allosteric inhibitor-binding site in ERK5: comparison with the canonical kinase hinge ATP-binding site” (Acta Crystallographica. Section D, Structural Biology, 2016)

Legend:
Assay in all cases: Z'-LYTE kinase panel
Format in all cases: biochemical
AKT2 (PKB beta) = target: T1, AKT2 (PKB beta) (Homo sapiens, UniProt P31751)
T1 construct: purchased ThermoFisher (SelectScreen, Z'-LYTE)
In short: (§1)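 Each compound was added at 10 µM, kinase activity was then measured via the standard Z′-LYTE assay, and percentage inhibition was calculated; 225 kinases were covered.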

FRAP1 (mTOR) = target: T2, FRAP1 (mTOR) (Homo sapiens, UniProt P42345)
T2 construct: purchased ThermoFisher (SelectScreen, Z'-LYTE)
In short: as §1

MYLK2 (skMLCK) = target: T3, MYLK2 (skMLCK) (Homo sapiens, UniProt Q9H1R3)
T3 construct: purchased ThermoFisher (SelectScreen, Z'-LYTE)
In short: as §1

MAPK12 (p38 gamma) = target: T4, MAPK12 (p38 gamma) (Homo sapiens, UniProt P53778)
T4 construct: purchased ThermoFisher (SelectScreen, Z'-LYTE)
T4 sequence (P53778 1-367): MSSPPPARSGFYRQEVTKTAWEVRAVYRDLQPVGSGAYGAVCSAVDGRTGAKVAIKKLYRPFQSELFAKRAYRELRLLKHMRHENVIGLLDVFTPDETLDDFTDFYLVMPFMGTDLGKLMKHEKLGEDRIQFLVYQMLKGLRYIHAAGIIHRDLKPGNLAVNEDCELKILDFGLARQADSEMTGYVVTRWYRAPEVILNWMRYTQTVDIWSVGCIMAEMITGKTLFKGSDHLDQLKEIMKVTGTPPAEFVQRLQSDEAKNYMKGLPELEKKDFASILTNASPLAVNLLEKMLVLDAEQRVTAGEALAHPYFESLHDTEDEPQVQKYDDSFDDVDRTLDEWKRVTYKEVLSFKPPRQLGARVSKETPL
In short: as §1

MARK4 = target: T5, MARK4 (Homo sapiens, UniProt Q96L34)
T5 construct: purchased ThermoFisher (SelectScreen, Z'-LYTE)
T5 sequence (Q96L34 1-752): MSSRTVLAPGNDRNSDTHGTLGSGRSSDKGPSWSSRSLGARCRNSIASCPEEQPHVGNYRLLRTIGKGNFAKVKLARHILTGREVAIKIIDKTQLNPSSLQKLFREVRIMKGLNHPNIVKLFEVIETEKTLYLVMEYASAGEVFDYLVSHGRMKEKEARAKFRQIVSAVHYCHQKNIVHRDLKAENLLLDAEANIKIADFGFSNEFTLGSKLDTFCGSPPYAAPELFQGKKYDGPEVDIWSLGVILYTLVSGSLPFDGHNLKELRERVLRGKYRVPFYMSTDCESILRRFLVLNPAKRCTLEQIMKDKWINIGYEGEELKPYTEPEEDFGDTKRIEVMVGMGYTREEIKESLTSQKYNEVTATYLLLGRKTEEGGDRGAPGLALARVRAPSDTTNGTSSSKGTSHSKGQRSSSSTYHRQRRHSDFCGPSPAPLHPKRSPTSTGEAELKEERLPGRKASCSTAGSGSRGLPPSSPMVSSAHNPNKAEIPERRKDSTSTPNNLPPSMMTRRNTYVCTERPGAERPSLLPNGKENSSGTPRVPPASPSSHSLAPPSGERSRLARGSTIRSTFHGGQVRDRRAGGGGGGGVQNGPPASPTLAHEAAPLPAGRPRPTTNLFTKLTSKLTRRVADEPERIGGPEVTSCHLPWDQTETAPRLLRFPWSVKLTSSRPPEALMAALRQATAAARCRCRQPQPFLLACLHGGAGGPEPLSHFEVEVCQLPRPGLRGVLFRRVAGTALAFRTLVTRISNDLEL
In short: as §1

PRKG2 (PKG2) = target: T6, PRKG2 (PKG2) (Homo sapiens, UniProt Q13237)
T6 construct: purchased ThermoFisher (SelectScreen, Z'-LYTE)
T6 sequence (Q13237 1-762): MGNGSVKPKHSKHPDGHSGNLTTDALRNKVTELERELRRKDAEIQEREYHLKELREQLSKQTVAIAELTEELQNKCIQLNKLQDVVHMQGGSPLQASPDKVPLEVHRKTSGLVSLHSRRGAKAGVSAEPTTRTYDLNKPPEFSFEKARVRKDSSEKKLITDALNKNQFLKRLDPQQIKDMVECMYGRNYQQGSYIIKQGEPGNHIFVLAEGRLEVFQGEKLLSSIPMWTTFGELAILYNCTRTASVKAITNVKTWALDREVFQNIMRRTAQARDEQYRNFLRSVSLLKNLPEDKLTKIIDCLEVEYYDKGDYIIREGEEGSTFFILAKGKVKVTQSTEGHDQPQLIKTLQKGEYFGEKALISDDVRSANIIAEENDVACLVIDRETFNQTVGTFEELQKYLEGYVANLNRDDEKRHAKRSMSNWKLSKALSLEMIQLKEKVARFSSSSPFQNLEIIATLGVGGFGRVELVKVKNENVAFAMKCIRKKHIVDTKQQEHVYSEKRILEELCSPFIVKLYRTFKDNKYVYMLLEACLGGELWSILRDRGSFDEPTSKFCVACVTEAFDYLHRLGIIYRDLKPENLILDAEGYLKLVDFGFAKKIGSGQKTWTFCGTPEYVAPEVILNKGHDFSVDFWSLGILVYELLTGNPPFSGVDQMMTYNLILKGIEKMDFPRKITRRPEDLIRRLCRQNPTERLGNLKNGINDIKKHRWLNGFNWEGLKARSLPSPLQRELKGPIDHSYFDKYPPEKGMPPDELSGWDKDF
In short: as §1

STK24 (MST3) = target: T7, STK24 (MST3) (Homo sapiens, UniProt Q9Y6E0)
T7 construct: purchased ThermoFisher (SelectScreen, Z'-LYTE)
T7 sequence (Q9Y6E0 whole entry): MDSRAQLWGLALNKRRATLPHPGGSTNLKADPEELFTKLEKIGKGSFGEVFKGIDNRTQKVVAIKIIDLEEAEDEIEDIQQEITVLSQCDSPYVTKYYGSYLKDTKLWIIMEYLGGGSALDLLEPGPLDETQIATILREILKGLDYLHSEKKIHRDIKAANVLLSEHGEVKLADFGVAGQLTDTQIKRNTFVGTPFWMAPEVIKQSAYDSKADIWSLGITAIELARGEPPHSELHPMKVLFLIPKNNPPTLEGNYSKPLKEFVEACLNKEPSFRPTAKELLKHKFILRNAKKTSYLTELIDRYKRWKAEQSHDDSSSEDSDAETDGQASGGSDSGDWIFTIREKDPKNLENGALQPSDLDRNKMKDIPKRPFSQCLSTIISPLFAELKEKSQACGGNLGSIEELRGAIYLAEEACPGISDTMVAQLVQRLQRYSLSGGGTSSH
In short: as §1

CDK2/cyclin A = target: T8, CDK2/cyclin A (Homo sapiens, UniProt P24941)
T8 construct: purchased ThermoFisher (SelectScreen, Z'-LYTE)
In short: as §1

T1 sequence (P31751 whole entry): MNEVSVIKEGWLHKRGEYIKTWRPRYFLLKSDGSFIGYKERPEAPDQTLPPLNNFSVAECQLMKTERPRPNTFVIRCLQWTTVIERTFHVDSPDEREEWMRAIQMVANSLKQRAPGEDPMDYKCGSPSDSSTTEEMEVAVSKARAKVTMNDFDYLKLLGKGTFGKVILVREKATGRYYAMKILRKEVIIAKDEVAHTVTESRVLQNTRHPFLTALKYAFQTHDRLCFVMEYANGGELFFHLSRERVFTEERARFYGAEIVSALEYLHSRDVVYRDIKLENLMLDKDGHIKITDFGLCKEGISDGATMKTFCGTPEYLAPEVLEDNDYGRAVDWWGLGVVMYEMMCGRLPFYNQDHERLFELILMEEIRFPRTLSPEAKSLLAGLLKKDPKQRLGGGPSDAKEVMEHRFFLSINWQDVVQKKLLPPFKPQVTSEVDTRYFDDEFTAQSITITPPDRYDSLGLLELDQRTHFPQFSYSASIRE

Row | Molecule | inhibition at 10 µM (AKT2 (PKB beta)) [%] | inhibition at 10 µM (FRAP1 (mTOR)) [%] | inhibition at 10 µM (MYLK2 (skMLCK)) [%] | inhibition at 10 µM (MAPK12 (p38 gamma)) [%] | inhibition at 10 µM (MARK4) [%] | inhibition at 10 µM (PRKG2 (PKG2)) [%] | inhibition at 10 µM (STK24 (MST3)) [%] | inhibition at 10 µM (CDK2/cyclin A) [%] | AKT2 (PKB beta) % Inhibition (AKT2 (PKB beta); 10 µM compound, ATP Km app) [%] | FRAP1 (mTOR) % Inhibition (FRAP1 (mTOR); 10 µM compound, ATP Km app) [%] | MYLK2 (skMLCK) % Inhibition (MYLK2 (skMLCK); 10 µM compound, ATP Km app) [%] | MAPK12 (p38 gamma) % Inhibition (MAPK12 (p38 gamma); 10 µM compound, ATP Km app) [%] | MARK4 % Inhibition (MARK4; 10 µM compound, ATP Km app) [%] | PRKG2 (PKG2) % Inhibition (PRKG2 (PKG2); 10 µM compound, ATP Km app) [%] | STK24 (MST3) % Inhibition (STK24 (MST3); 10 µM compound, ATP Km app) [%] | CDK2/cyclin A % Inhibition (CDK2/cyclin A; 10 µM compound, ATP Km app) [%]
1 | Cc1ncc(-c2nc(Nc3ccc(C(=O)NCCN4CCCCC4)cc3)ncc2F)n1C(C)C [Compound 3] | 7 | 44 | 78 | 46 | 62 | 95 | 89 | 101 | – | – | – | – | – | – | – | –
2 | Cc1cc(Nc2nc(N)nn2C(=O)NC(C)C)ccc1Cl [Compound 5] | -0.29 | -12 | -0.775 | 1.08 | 2.34 | -9 | 27 | 56 | – | – | – | – | – | – | – | –
3 | XMD8-92 [Compound 2, reference compound] | – | – | – | – | – | – | – | – | 98 | -15 | 42 | 3.54 | 37 | 43 | 30 | 20
